The text below walks through data of publication PMC9315884, “New Membrane Active Antibacterial and Antiviral Amphiphiles Derived from Heterocyclic Backbone of Pyridinium-4-Aldoxime” (Pharmaceuticals, 2022).

For one experiment, the system named is Escherichia coli DH5α. As to the kind of experiment: MIC determination before AFM. Format: cell-based.
Experiment [1] relates to Escherichia coli DH5α cells. As to the kind of experiment: AFM, bright-field and SYTO9/PI fluorescence microscopy of treated cells. Format: cell-based. Particulars: E. coli DH5α. As to the method:
Optical and atomic force microscopy of the immobilized untreated and treated cells was performed to visualize the effect of Py-C12 on the bacterial membrane. For these experiments we used Escherichia coli DH5α cells because these cells allowed solid immobilization with persevered cell viability.
After making sure that the cells were properly immobilized and proliferating (a few new generations of cells were observed via optical microscopy), we started the treatment. To accelerate the process of time-dependent membrane damage, the cells were treated with the 4xMIC of Py-C12 for three hours after which the sample was rinsed with the fresh growth medium.
To estimate the percentage of cells whose membrane had been permeabilized by the treatment, the same group of cells was stained simultaneously with two fluorescent nucleic dyes, SYTO9 and propidium iodide (PI). […] When applied together, PI tends to displace SYTO9 from nucleic acid and the cells fluorescence in red. […]
AFM measurements of immobilized cells, both untreated and treated, were performed using the Nano-wizard IV system (JPK/Bruker, Berlin, Germany) operating in quantitative imaging (QI) mode with SNL-B probes (Bruker, Billerica, MA, USA). The AFM system was integrated with an IX73 inverted fluorescence optical microscope (Olympus, Tokyo, Japan). […]

Experiment [2] deals with Salmonella enterica food isolate. Put plainly: Broth microdilution assay (MIC). Format: cell-based. Particulars: 18 h, S. enterica food isolate. As to the method: (§1) The antibacterial activity of all compounds was evaluated by determining the minimum inhibitory concentration (MIC), which is defined as the lowest concentration of the compound at which no visible bacterial growth is detected. The compounds were tested against representatives of Gram-positive and Gram-negative strains, including the ESKAPE bacterium Staphylococcus aureus ATCC25923 and the clinical isolate of methicillin-resistant S. aureus (MRSA), which are known for their pathogenicity.
(§2) The collection included five Gram-positive strains, including Staphylococcus aureus (ATCC 25923 and a methicillin-resistant Staphylococcus aureus clinical strain MRSA), Bacillus cereus ATCC 14579, Enterococcus faecalis ATCC 29212, and Listeria monocytogenes ATCC 7644; and three Gram-negative strains: Escherichia coli ATCC 25922, Pseudomonas aeruginosa ATCC 27853 and the food isolate Salmonella enterica. All microbial strains were maintained at ™80 °C for long-term storage and subcultured on Mueller-Hinton (MH) agar (Biolife, Italy) prior to broth microdilution experiments. The MH plates were stored at +4 °C for no longer than one month.
(§3) Antibacterial activity was evaluated using the Broth Microdilution Assay according to the Clinical and Laboratory Standard Institute’s Methods for Dilution Antimicrobial Susceptibility Test for Bacteria That Grow Aerobically; Approved Standard-Tenth Edition.
(§4) The stock solution of QAS (10 mg/mL) was prepared in 4% DMSO. Then, 100 µL of the tested QAS was added to the first well of the microtiter plate. Twofold serial dilutions in Muller-Hinton broth were performed over the entire plate at a concentration range of 5 mg/mL to 5 µg/mL. To each well, 50 µL of mid-exponentially grown inoculum containing 10^5 CFU/mL in Mueller-Hinton broth was added and incubated at 37 °C for 18 hours. The minimum inhibitory concentration (MIC) was determined as the lowest concentration at which no visually detectable bacterial growth occurred in the wells.
On the technique in general: In broth dilution the organism is exposed to a series of concentrations in liquid medium.

In experiment [3] the test system is methicillin-resistant Staphylococcus aureus clinical strain MRSA. As to the kind of experiment: Broth microdilution assay (MIC). Format: cell-based. Particulars: MRSA, 18 h. As to the method: as §1, §2, §3, §4
For experiment [4], the system named is Enterococcus faecalis ATCC29212. Put plainly: Broth microdilution assay (MIC). Format: cell-based. Particulars: ATCC29212, 18 h. On the procedure:
as §1
(§5) All microbial strains were maintained at ™80 °C for long-term storage and subcultured on Mueller-Hinton (MH) agar (Biolife, Italy) prior to broth microdilution experiments. The MH plates were stored at +4 °C for no longer than one month.
as §3
(§6) The stock solution of QAS (10 mg/mL) was prepared in 4% DMSO. Then, 100 µL of the tested QAS was added to the first well of the microtiter plate. Twofold serial dilutions in Muller-Hinton broth were performed over the entire plate at a concentration range of 5 mg/mL to 5 µg/mL. […] The minimum inhibitory concentration (MIC) was determined as the lowest concentration at which no visually detectable bacterial growth occurred in the wells.

In experiment [5] the test system is Escherichia coli ATCC25922. As to the kind of experiment: Broth microdilution assay (MIC). Format: cell-based. Particulars: ATCC25922, 18 h. On the procedure:
as §1, §5, §3, §6

The test system of experiment [6] is Listeria monocytogenes ATCC7644. Put plainly: Broth microdilution assay (MIC). Particulars: ATCC7644, 18 h. Format: cell-based. As to the method: as §1, §5, §3, §6
Experiment [7] concerns Pseudomonas aeruginosa ATCC27853. As to the kind of experiment: Broth microdilution assay (MIC). Format: cell-based. Particulars: ATCC27853, 18 h. As to the method:
as §1, §5, §3, §6

Experiment [8] has as its system Bacillus cereus ATCC14579. As to the kind of experiment: Broth microdilution assay (MIC). Format: cell-based. Particulars: ATCC14579, 18 h. On the procedure: as §1, §5, §3, §6
In experiment [9] the test system is Staphylococcus aureus ATCC25923. Put plainly: Broth microdilution assay (MIC). Format: cell-based. Particulars: Staphylococcus aureus, ATCC25923, 18 h. On the procedure:
as §1, §5, §3, §6

The test system of experiment [10] is Tobacco mosaic virus (TMV). Put plainly: Antiphytoviral activity assay (local lesions on host plant leaves). Format: in vivo, Tobacco mosaic virus on Datura stramonium. Particulars: Datura stramonium leaves, compound 100 µg/mL inoculated simultaneously with TMV. On the procedure:
Leaves of Nicotiana tabacum L. cv. Samsun plants systemically infected with Tobacco mosaic virus (TMV) were ground in 0.06 mol/L phosphate buffer, pH 7.0 (1:1, w/v) to prepare virus inocula. […] Leaves of the local host Datura stramonium L. were dusted with silicon carbide (Sigma-Aldrich, St. Louis, MO, USA) before virus inoculation, and the inoculum was diluted with inoculation buffer to obtain 5–20 lesions per inoculated leaf. Experiments were performed when the experimental plants reached the 4–6 leaf stage.
The tested QAS (10 mg/mL) were dissolved in 4% DMSO and added to the virus inocula at a final concentration of 100 µg/mL. DMSO was added to the control virus inocula at the same concentration. The control and treated plants were then rubbed with the prepared inocula and the antiviral activity of the tested compounds was evaluated by the percentage inhibition of the number of local lesions on the leaves of the treated and control plants as described in [40]. The obtained data were analyzed in Excel (Microsoft Office) and significant differences were determined by t-test.

Each structure is given as a SMILES string. Values joined by “and” are separate entries in the source; they are usually repeats but may differ in a detail not shown here. Equal values may be shown once.

For the molecule `CCCCCCCCCCCC[n+]1ccc(C=NO)cc1` [Py-C12], the “MIC against E. coli DH5α in words” value with Escherichia coli DH5α is “equivalent to that of E. coli ATTC 25922”. For the same molecule, the “effect on number of bacterial cells (bright-field)” value in experiment [1] (4xMIC, 3 h) is recorded as “bacteriostatic effect”. Also, the “percentage of permeabilized cells” value in experiment [1] (4 × MIC, 3 h treatment, SYTO9/PI staining, 344 cells) was determined as 87%. Also, the minimal inhibitory concentration (MIC) (usually the lowest concentration found to suppress growth) in experiment [2] is 630 µg/mL and 1700 µM; in experiment [3], 310 mg/L; in experiment [4], 630 µg/mL and 1700 µM; in experiment [5], 630 µg/mL and 1700 µM; in experiment [6], 630 µg/mL and 1700 µM; in [7], 2500 µg/mL and 6730 µM. Moreover, the results for the MIC in experiment [8] and in experiment [9] were 1250 mg/L and 80 mg/L, respectively. For the same molecule, the “Number of local lesions (LLN ± SD)” value in [10] is on record as 3.0±1.1. In addition, the “Percentage of inhibition of local lesions” value in [10] (vs control plants) was 78.1%.
